According to US4416877A, “Anti-atherosclerotic pharmaceutical compositions containing diphosphonate compounds” (priority 1979, dated 1983):
“Also recorded” adds a separate entry of the source. Where two headings read alike, the source gives them in different places.

Assays:
tissue cholesterol = test: Effects in cholesterol fed rats (serum, liver and aorta lipids); format: in vivo; settings: for liver total lipids and/or liver cholesterol: cholesterol fed rats; for change in vivo at 200 mg/kg/day: Rattus norvegicus
Procedure: Effects of diphosphonates of formula (I) in cholesterol fed rats
In order to increase tissue cholesterol, especially liver, rats were fed a high fat-high cholesterol diet for 10 days to 3 months, with the following diet composition: casein 20%, butter 37%, cellulose 9.1%, dextrose 18,9%, cholesterol 4.5%, sodium cholate 1.8%, minerals 7.3%, vitamins 1%, choline 0.4%.
The rats were then fed normal food and were treated for 10 days to 3 months with different compounds (200 mg/kg/day). Serum parameters described above were measured. Liver and aorta lipids were extracted according to J. Folch et al (J. Biochem. 226, 497, 1957). Total lipids were determined by the sulfophosphovanillic reaction (see N. Zolner and K. Kirsch, Z. Ges. exp. Med. 135, 545, 1962) and cholesterol by the Liebermann-Burchard reaction or appropriate enzymatic reaction.
(§1) In above Table IV, results are given as % control values. Except for serum calcium, values which differ from control values by less than 15% are considered as non significant (NS).
Serum free fatty acids, triglycerides and phospholipids were measured in normal rats (N) and rats previously fed a cholesterol diet for 10 days (C.F.)
(§2) Serum α/β cholesterol, total lipids and cholesterol of liver and aorta were determined in normal rats (N) and rats which had previously been fed on high cholesterol diet (C.F.)

lipid metabolism = test: Effects of diphosphonates on lipid metabolism in normal rats (serum lipids, α/β cholesterol); format: in vivo, male Wistar rats; settings: for increased HDL lipids, especially HDL cholesterol: normal rats; for Serum Free Fatty Acids (% control values) / Serum Phospholipids (% control values) / Serum Triglycerides (% control values) / change in vivo at 200 mg/kg/day / Serum Chol. α/β (% control values): normal rats (N), 200 mg/kg/day p.o.; for change in vivo at 200 mg/kg/day: Rattus norvegicus, po
Procedure: Effects of diphosphonates of formula (I) on lipid metabolism in normal rats Groups of 4 to 5 normal male Wistar rats, weighing about 200 g were treated with diphosphonates (200 mg/kg/day) p.o. for 4 to 21 days. Water soluble compounds were given in solution in 24 mM bicarbonate buffer. Lipid soluble compounds were given in corn oil. The rats were weighed, sacrificed by decapitation (under light ether anesthesia) after overnight fasting. Blood was collected and serum used for analysis. The following blood parameters reflecting changes in lipid metabolism are reported: […]
free fatty acids measured according to W. G. Duncombe (Clin. Acta 9, 122, 1964) triglycerides enzymatic method (Boehringer Mannheim Kit 126 012) phospholipids: molybdate/vanadate reaction (Boehringer Mannheim Kit 124 974) β-lipoprotein cholesterol was measured after heparin, CaCl2 precipitation according to M. Burstein et al. (La Presse Medicale 43, 974, 1958) and to D. Watson (Clin. Chim. Acta 5, 637, 1960).
as §1
as §2, with “Serum free fatty acids, triglycerides and phospholipids were measured in normal rats (N) and rats previously fed a cholesterol diet for 10 days (C.F.) Serum” for “Serum”

[1] = cholesterol fed rats (C.F), 200 mg/kg/day
[2] = cholesterol fed rats (C.F), 200 mg/kg/day, read-out: Liver Total Lipids (% control values)
[3] = read-out: Serum Free Fatty Acids (% control values)
[4] = read-out: Serum Phospholipids (% control values)
[5] = read-out: Serum Triglycerides (% control values)
[6] = read-out: Serum Chol. α/β (% control values)

SMILES	increased HDL lipids, especially HDL cholesterol (lipid metabolism)	increase in serum phospholipid (lipid metabolism; rats)	α-cholesterol/β-cholesterol ratio / lipoprotein cholesterol (lipid metabolism; rats)	change in vivo at 200 mg/kg/day (lipid metabolism; [4]) [%]	change in vivo at 200 mg/kg/day (lipid metabolism; [5]) [%]	change in vivo at 200 mg/kg/day (lipid metabolism; [6]) [%]	further results
COP(=O)(OC)C(O)(c1ccccc1)P(=O)(OC)OC [Compound 2]	observed most dramatically	found to increase	highly significant activity				liver total lipids and/or liver cholesterol (tissue cholesterol): decreased significantly; Aorta Chol. (% control values) (tissue cholesterol; [1]): NS (Except for serum calcium, values which differ from control values by less than 15% are considered as non significant (NS)); Aorta Total Lipids (% control values) (tissue cholesterol; [1]): -30%; Liver Chol. (% control values) (tissue cholesterol; [1]): -50%; Liver Total Lipids (% control values) (tissue cholesterol; [1]): -24%; Serum Chol. α/β (% control values) (tissue cholesterol; [1]): +88%; Serum Free Fatty Acids (% control values) (tissue cholesterol; [1]): -56%; Serum Phospholipids (% control values) (tissue cholesterol; [1]): NS (Except for serum calcium, values which differ from control values by less than 15% are considered as non significant (NS)); Serum Triglycerides (% control values) (tissue cholesterol; [1]): -15%; Serum Free Fatty Acids (% control values) (lipid metabolism): NS (Except for serum calcium, values which differ from control values by less than 15% are considered as non significant (NS)); Serum Phospholipids (% control values) (lipid metabolism): +25%; Serum Triglycerides (% control values) (lipid metabolism): -21%; decreases in serum triglycerides (lipid metabolism; rats): Significant decreases
COP(=O)(OC)C(O)(c1ccc(Cl)cc1)P(=O)(OC)OC [Compound 4, Tetramethyl 1-(p-chlorophenyl)methane 1-hydroxy 1,1-diphosphonate]	observed most dramatically	found to increase; also recorded: at least two fold the most active	highly significant activity	43	-24		change in vivo at 200 mg/kg/day (tissue cholesterol; cholesterol fed rats (C.F), 200 mg/kg/day, read-out: Liver Chol. (% control values)): -56%; change in vivo at 200 mg/kg/day (tissue cholesterol; [2]): -31%; liver total lipids and/or liver cholesterol (tissue cholesterol): decreased significantly; Aorta Chol. (% control values) (tissue cholesterol; [1]): NS (Except for serum calcium, values which differ from control values by less than 15% are considered as non significant (NS)); Aorta Total Lipids (% control values) (tissue cholesterol; [1]): -47%; Serum Chol. α/β (% control values) (tissue cholesterol; [1]): +220%; Serum Free Fatty Acids (% control values) (tissue cholesterol; [1]): -67%; Serum Phospholipids (% control values) (tissue cholesterol; [1]): +21%; Serum Triglycerides (% control values) (tissue cholesterol; [1]): -21%; change in vivo at 200 mg/kg/day (lipid metabolism; [3]): -48%; decreases in serum triglycerides (lipid metabolism; rats): Significant decreases
COP(=O)(OC)OC(C(C)(C)c1ccccc1)P(=O)(OC)OC (stereo not drawn) [Compound 20]		found to increase		15	36	25	
CCOP(=O)(OCC)C(CCCc1ccccc1)P(=O)(OCC)OCC [Compound 29, Tetraethyl 4-phenylbutylidene 1,1-diphosphonate]		found to increase		17	46	33	
COP(=O)(OC)OC(c1ccc(C)cc1)P(=O)(OC)OC (stereo not drawn) [Compound 18]				< 15	-33	< 15	change in vivo at 200 mg/kg/day (tissue cholesterol; [2]): < 15%
COP(=O)(OC)OC(c1ccccc1Cl)P(=O)(OC)OC (stereo not drawn) [Compound 14]				22	-42	34	
CCCCOP(=O)(OCCCC)OC(c1ccc(Cl)cc1)P(=O)(OCCCC)OCCCC (stereo not drawn) [Compound 25]							Serum Chol. α/β (% control values) (lipid metabolism): NS (Except for serum calcium, values which differ from control values by less than 15% are considered as non significant (NS)); Serum Phospholipids (% control values) (lipid metabolism): NS (Except for serum calcium, values which differ from control values by less than 15% are considered as non significant (NS)); Serum Triglycerides (% control values) (lipid metabolism): NS (Except for serum calcium, values which differ from control values by less than 15% are considered as non significant (NS))
COP(=O)(OC)OC(c1ccc(C(=O)c2ccc(Cl)cc2)cc1)P(=O)(OC)OC (stereo not drawn) [Compound 23, Dimethyl [α-(dimethoxyphosphinyl) 4-(4'-chlorobenzoyl)]benzyl phosphate]	observed most dramatically	found to increase; also recorded: at least two fold the most active	highly significant activity	53	< 15	55	
COP(=O)(OC)C(O)(c1ccc(F)cc1)P(=O)(OC)OC [Compound 5]	observed most dramatically		highly significant activity		27	64	
COP(=O)(OC)OC(C(C)(C)Cc1ccc(Cl)cc1)P(=O)(OC)OC (stereo not drawn) [Compound 22]				< 15	-19	-38	
COP(=O)(OC)C(O)(C(C)(C)C)P(=O)(OC)OC [Compound 1]							Serum Chol. α/β (% control values) (lipid metabolism): NS (Except for serum calcium, values which differ from control values by less than 15% are considered as non significant (NS)); Serum Free Fatty Acids (% control values) (lipid metabolism): NS (Except for serum calcium, values which differ from control values by less than 15% are considered as non significant (NS)); Serum Phospholipids (% control values) (lipid metabolism): -43%; Serum Triglycerides (% control values) (lipid metabolism): +24%; property to change lipid metabolism / increase HDL (lipid metabolism; rats): do not have these properties
COP(=O)(OC)OC(C1CCCCC1)P(=O)(OC)OC (stereo not drawn) [Compound 12]							Serum Chol. α/β (% control values) (lipid metabolism): NS (Except for serum calcium, values which differ from control values by less than 15% are considered as non significant (NS)); Serum Phospholipids (% control values) (lipid metabolism): NS (Except for serum calcium, values which differ from control values by less than 15% are considered as non significant (NS)); Serum Triglycerides (% control values) (lipid metabolism): -46%; decreases in serum triglycerides (lipid metabolism; rats): Significant decreases
COP(=O)(OC)OC(c1ccc(F)cc1)P(=O)(OC)OC (stereo not drawn) [Compound 17]	observed most dramatically		highly significant activity	< 15	< 15	81	
COP(=O)(OC)OC(c1cccc(Cl)c1)P(=O)(OC)OC (stereo not drawn) [Compound 15]	observed most dramatically		highly significant activity	< 15	-37	69	
COP(=O)(OC)C(O)(c1ccc(C)cc1)P(=O)(OC)OC [Compound 3]				< 15	< 15	< 15	change in vivo at 200 mg/kg/day (lipid metabolism; [3]): < 15%
COP(=O)(OC)C(CCCc1ccccc1)P(=O)(OC)OC [Compound 37, Tetramethyl 4-phenylbutylidene 1,1-diphosphonate]	observed most dramatically	found to increase	highly significant activity	33	42	49	
COP(=O)(OC)OC(c1cc(C)ccc1C)P(=O)(OC)OC (stereo not drawn) [Compound 19, Dimethyl α-(dimethoxyphosphinyl)2,5-dimethylbenzyl phosphate]				< 15	< 15	15	decreases in serum triglycerides (lipid metabolism; rats): Significant decreases
